How the values were obtained:
[1] = target: κ-opioid receptor (Homo sapiens, UniProt P41145); test: [35S]GTP-γ-S binding, κ-antagonism; assay type: biochemical; details: n=3; for Kb: Ke κ-Antagonism
[2] = target: T1, μ-opiate receptor (Homo sapiens, UniProt P35372); test: biochemical; details: for Kb: Ke μ-Antagonism
[3] = target: T1, μ-opiate receptor; assay type: binding; details: read-out: Ki μ
[4] = target: κ-opiate receptor (Homo sapiens, UniProt P41145); test: [3H] opioid receptor binding, κ; details: read-out: Ki κ; CHO cells stably transfected, expressing κ-opiate receptor; n=3
Chain of κ-opiate receptor (P41145 whole entry): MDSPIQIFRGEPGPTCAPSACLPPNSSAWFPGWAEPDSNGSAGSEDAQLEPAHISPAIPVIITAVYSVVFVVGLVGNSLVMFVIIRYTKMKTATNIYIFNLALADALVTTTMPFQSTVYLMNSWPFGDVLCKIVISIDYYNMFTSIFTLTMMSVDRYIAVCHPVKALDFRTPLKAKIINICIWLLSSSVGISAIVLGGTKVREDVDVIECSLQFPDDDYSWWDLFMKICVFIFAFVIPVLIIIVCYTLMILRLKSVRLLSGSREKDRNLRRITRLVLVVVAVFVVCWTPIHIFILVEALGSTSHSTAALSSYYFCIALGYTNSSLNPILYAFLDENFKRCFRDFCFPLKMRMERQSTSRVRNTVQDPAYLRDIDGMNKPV

T1 sequence (P35372 whole entry): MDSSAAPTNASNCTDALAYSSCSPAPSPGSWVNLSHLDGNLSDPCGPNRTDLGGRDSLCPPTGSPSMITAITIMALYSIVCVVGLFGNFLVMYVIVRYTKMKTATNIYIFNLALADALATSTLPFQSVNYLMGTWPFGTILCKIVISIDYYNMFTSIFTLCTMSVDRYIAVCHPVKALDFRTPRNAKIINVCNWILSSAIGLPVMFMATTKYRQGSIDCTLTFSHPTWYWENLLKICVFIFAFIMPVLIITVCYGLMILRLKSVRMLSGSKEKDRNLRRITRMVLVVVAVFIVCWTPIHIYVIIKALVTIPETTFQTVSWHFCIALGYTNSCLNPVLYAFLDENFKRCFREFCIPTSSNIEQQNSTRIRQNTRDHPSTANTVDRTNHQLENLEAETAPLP
Chain of κ-opioid receptor (P41145 whole entry): as the sequence (P41145 whole entry) above

## Oc1cccc2c1O[C@H]1CC[C@@H]3C[C@]21CCN3CCc1ccccc1 (stereo in doubt) [Compound 19b, (4R,6aS,11bR)-2,3,4,5,6,6a-Hexahydro-3-phenethyl-1H-4,11b-methanobenzofuro[3,2-d]azocine-8-ol]
[1]
  Kb: 0.022 ± 0.006 µM
[2]
  Kb: 0.031 ± 0.006 µM

## Oc1ccc2c(c1)[C@@]13CCN(CCc4ccccc4)[C@@H](CC[C@H]1O2)C3 [Compound 16b, (4S,6aR,11bS)-2,3,4,5,6,6a-Hexahydro-3-phenethyl-1H-4,11b-methanobenzofuro[3,2-d]azocine-10-ol]
[1]
  Kb: 0.103 ± 0.017 µM
[2]
  Kb: 0.227 ± 0.033 µM

## (4S,6aR,11bS)-2,3,4,5,6,6a-hexahydro-3-phenethyl-1H-4,11b-methanobenzofuro[3,2-d]azocine-8-ol [Compound 19a]
[3]
  Ki: 0.384 ± 0.038 µM
[1]
  Ke κ-Antagonism: 761 ± 191 nM
[2]
  Ke μ-Antagonism: 328 ± 67 nM
[4]
  Ki: 0.367 ± 0.019 µM

## Oc1ccc2c(c1)[C@]13CCN(CCc4ccccc4)[C@H](CC[C@H]1O2)C3 (racemic) [rac 10, rac-(4R,6aR,11bR)-2,3,4,5,6,6a-hexahydro-3-phenethyl-1H-4,11b-methanobenzofuro[3,2-d]azocin-10-ol]
[1]
  Kb: 0.046 ± 0.009 µM

## Oc1cccc2c1O[C@@H]1CC[C@@H]3C[C@]21CCN3CCc1ccccc1 (racemic) [rac 5, rac-(4R,6aR,11bR)-2,3,4,5,6,6a-hexahydro-3-phenethyl-1H-4,11b-methanobenzofuro[3,2-d]azocin-8-ol]
[1]
  Kb: 0.163 ± 0.029 µM
[2]
  Kb: 0.274 ± 0.049 µM

## Oc1ccc2c(c1)[C@]13CCN(CCc4ccccc4)[C@H](CC[C@@H]1O2)C3 [Compound 16a, (4R,6aS,11bR)-2,3,4,5,6,6a-Hexahydro-3-phenethyl-1H-4,11b-methanobenzofuro[3,2-d]azocine-10-ol]
[1]
  Kb: 0.1 ± 0.003 µM
[2]
  Kb: 0.047 ± 0.009 µM

— paper PMC3145320 (Bioorganic & medicinal chemistry, 2011)
